Experimental data: patent publication US10864159B2, “Method and composition for treating ocular hypertension and glaucoma” (Santen Pharmaceutical Co., Ltd., priority 2008, dated 2020)

Test: Absorption of preservative-free tafluprost to low density polyethylene containers, remaining concentration by HPLC
Format: physicochemical
Conditions: LDPE unit dose container, 20 weeks at 5° C., 25° C. and 40° C.
Experimental: The effect of nonionic surfactant on the absorption of preservative-free tafluprost to low density polyethylene containers was studied for 20 weeks at 5° C., 25° C. and 40° C. Three different polysorbate 80 (Tween 80) concentrations, namely 0.05%, 0.075% and 0.1% were used. The composition of the preservative-free aqueous tafluprost formulation except polysorbate 80 was 0.0015% tafluprost, 2.25% glycerol, 0.2% sodium dihydrogen phosphate dihydrate, 0.05% disodium edetate and sodium hydroxide and/or hydrochloric acid to adjust the pH to 5.0-6.7. 0.3 ml of the composition prepared above was filled in the body part of the unit dose container (LDPE) and sealed by heating with the upper part of the container (LDPE). The inner volume of the unit dose container was ca. 1 ml. The container was packaged into paper coated aluminium-polyethylene foil and stored in refrigerator or incubator. The remaining concentration of tafluprost was measured by HPLC.

Question: For CC(C)OC(=O)CCC/C=C\C[C@@H]1[C@@H](/C=C/C(F)(F)COc2ccccc2)[C@H](O)C[C@@H]1O [tafluprost], which “absorption of tafluprost to polyethylene” value (polysorbate 80 0.05 to 0.1%) is on record?
Answer: inhibits the absorption of tafluprost

Question: And the “absorption of tafluprost to polyethylene” value (polysorbate 80 0.075 to 0.1%)?
Answer: good inhibition effect of absorption of tafluprost
